This is an account of results in patent US7655662B2, “(Indazol-5-yl)-pyrazines and (1,3-dihydro-indol-2-one)-pyrazines for treating glaucoma and controlling intraocular pressure” (Alcon Research, Ltd., priority 2005, dated 2010).

Structures can show the parent of a compound that is named as a salt.

The test has as its target T1, Human recombinant Rho kinase (ROKα/ROCK-II, (aa 11-552)) (Homo sapiens, UniProt O75116).
T1 construct: Human recombinant Rho kinase (ROKα/ROCK-II, (aa 11-552), human active); purchased Upstate Biotechnology Co., Lake Placid, N.Y. 14-451
In words: Rho kinase II (ROCK II) IMAP fluorescence polarization inhibition assay. Format: biochemical. Particulars: IMAP ROCK II kit; substrate 200 nM, ATP 10 μM; 60 min at 23° C.; read-out: Rho kinase II Binding Data IC50. As to the method: The ability of certain compounds of Formula (I) to inhibit rho kinase is evaluated by means of in vitro assays. Human recombinant Rho kinase (ROKα/ROCK-II, (aa 11-552), human active, catalog #14-451, Upstate Biotechnology Co., Lake Placid, N.Y.), MgCl2/ATP cocktail, and enzyme substrate (Upstate) is used.
Fluorescence polarization assays are performed using a Biomek 2000 Robotic Workstation (Beckman Instruments, Palo Alto, Calif.) in a 96-well plate format. The assays are performed utilizing the IMAP ROCK II kit (Molecular Devices, Sunnyvale, Calif.) as follows. Substrate and ATP concentrations used are 200 nM and 10 μM, respectively, while the enzyme concentration is 3.96×10^−3 units per well. The substrate, enzyme, and ATP dilutions are made with the reaction buffer provided by the vendor. Test compounds are diluted in 10:10 DMSO-ethanol (vol/vol). For the actual assays, the various components are added into black, clear bottom, 96-well plates (Costar, Corning, N.Y.) in a final volume of 20 μl per well. After the enzyme reaction (60 min at 23° C.), 60 μl of the binding solution (IMAP kit, provided by vendor) is added per well and incubated for an additional 30 minutes in the dark at 23° C. Fluorescence polarization of the reaction mixtures is then measured on the Analyst™ HT instrument (Molecular Devices, Sunnyvale, Calif.).
The data generated are then analyzed using a non-linear, iterative, sigmoidal-fit computer program purchased from IDBS (Emeryville, Calif.) and as previously described (Sharif et al., J Pharmacol. Exp. Ther. 286:1094-1102, 1998; Sharif et al., J Pharmacol. Expt. Ther. 293:321-328, 2000; Sharif et al., J Ocular Pharmacol. Ther. 18:141-162, 2002a; Sharif et al., J Pharmac. Pharmacol. 54:539-547, 2002b) to generate the inhibition constants for the test compounds.
(Fluorescence polarisation rises when a labelled molecule tumbles more slowly, as on binding a larger partner.)

T1 sequence (O75116 11-552): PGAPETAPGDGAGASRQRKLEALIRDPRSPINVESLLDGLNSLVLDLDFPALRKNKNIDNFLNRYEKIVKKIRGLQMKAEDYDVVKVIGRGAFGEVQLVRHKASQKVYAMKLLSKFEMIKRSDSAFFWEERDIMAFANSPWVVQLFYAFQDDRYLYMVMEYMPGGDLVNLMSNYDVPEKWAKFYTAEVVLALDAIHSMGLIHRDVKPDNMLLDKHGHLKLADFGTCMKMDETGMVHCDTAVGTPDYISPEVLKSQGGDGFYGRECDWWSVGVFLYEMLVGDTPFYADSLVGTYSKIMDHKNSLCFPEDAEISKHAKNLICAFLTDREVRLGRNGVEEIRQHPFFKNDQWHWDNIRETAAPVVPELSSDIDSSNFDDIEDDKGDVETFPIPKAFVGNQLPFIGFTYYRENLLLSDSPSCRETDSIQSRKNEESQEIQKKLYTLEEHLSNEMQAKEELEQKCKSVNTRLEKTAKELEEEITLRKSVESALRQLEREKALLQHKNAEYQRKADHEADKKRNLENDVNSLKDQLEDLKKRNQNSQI

As a reminder, the IC50 is the concentration at which inhibition is half-maximal. Turning to `Cc1n[nH]c2ccc(-c3cncc(NC[C@@H](N)Cc4ccccc4)n3)cc12` (single isomer, unassigned) [Example 2], the IC50 amounted to 57 nM.

With `Cc1n[nH]c2ccc(-c3cncc(NC[C@@H](N)Cc4ccccc4)n3)cc12` [Example 1, (S)-N^1-[6-(3-Methyl-1H-indazole-5-yl)-pyrazin-2-yl]-3-phenyl-propane-1,2-diamine dihydrochloride], the IC50 was found to be 190 nM.

On to `Cc1n[nH]c2ccc(-c3cncc(NCC(N)Cc4cc5ccccc5[nH]4)n3)cc12` (stereo not drawn) [Example 3], for which the IC50 was determined as 590 nM.
